Measurements published in ChEMBL document CHEMBL5380814, “Targeting Receptor-Interacting Protein Kinase 1 by Novel Benzothiazole Derivatives: Treatment of Acute Lung Injury through the Necroptosis Pathway” (J Med Chem, 2023).
Calls of active or inactive are those of the source. The rule behind the calls is not given here.

Legend:
HT-29 [1] = test: Anti-necroptotic activity in human HT-29 cells assessed as inhibition of human TNFalpha/Smac mimetic/Z-VAD-FMK induced necroptosis preincubated with compound followed by TSZ stimulation for 12 hrs; type: functional, cell-based
HT-29 [2] = test: Anti-necroptotic activity in human HT-29 cells assessed as inhibition of human TNFalpha/Smac mimetic/Z-VAD-FMK induced necroptosis preincubated with compound for 16 to 24 hrs followed by TSZ stimulation for 12 hrs measured by cell-titre glo luminescent cell viability assay; type: functional, cell-based
HT-29 [3] = test: Cytotoxicity against human HT-29 cells incubated at 100 uM for 16 to 24 hrs measured by cell-titre glo luminescent cell viability assay; type: functional, cell-based; details: time 16-24 hrs
HT-29 [4] = test: Cytotoxicity against human HT-29 cells incubated for 16 to 24 hrs measured by cell-titre glo luminescent cell viability assay; type: functional; details: time 16-24 hrs
[5] = target: Receptor-interacting serine/threonine-protein kinase 3 (Homo sapiens, UniProt Q9Y572); test: Binding affinity to human wildtype full length RIPK3 (M1 to Q307 residues) expressed in bacterial expression system assessed as dissociation constant by kinome scan kd select based qPCR analysis
[6] = target: T1, Receptor-interacting serine/threonine-protein kinase 1 (Homo sapiens, UniProt Q13546); test: Binding affinity to human wildtype full length RIPK1 (M1 to K305 residues) expressed in bacterial expression system assessed as dissociation constant by kinome scan kd select based qPCR analysis
T1 sequence (Q13546 whole entry): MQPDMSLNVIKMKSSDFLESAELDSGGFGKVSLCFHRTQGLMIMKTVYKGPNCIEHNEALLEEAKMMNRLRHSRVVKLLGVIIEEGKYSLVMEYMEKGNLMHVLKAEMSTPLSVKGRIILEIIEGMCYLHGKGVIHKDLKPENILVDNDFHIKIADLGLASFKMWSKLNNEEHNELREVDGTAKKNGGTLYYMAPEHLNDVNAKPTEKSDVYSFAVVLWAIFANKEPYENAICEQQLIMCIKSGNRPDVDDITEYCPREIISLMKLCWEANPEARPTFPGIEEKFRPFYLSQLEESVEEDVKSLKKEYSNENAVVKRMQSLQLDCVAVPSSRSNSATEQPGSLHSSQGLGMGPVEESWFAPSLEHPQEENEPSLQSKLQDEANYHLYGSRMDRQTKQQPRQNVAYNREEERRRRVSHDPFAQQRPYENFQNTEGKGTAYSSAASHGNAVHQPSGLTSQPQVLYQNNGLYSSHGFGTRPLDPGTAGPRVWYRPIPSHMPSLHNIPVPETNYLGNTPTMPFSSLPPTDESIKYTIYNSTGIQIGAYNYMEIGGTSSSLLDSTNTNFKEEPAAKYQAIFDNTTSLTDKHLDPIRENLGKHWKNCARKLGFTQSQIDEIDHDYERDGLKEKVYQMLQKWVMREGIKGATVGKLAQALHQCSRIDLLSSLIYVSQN

Mus musculus = test: In vivo anti-inflammatory activity in NNK induced induced C57BL/6J ALI mouse model assessed as lung injury score pretreated at 5 mg/kg, ip for 1 hr followed by NNK administration relative to disease model (reference value: 5.7 +/- 0.5); type: functional

Sequence of Receptor-interacting serine/threonine-protein kinase 3 (Q9Y572 whole entry, the tested form may be a part): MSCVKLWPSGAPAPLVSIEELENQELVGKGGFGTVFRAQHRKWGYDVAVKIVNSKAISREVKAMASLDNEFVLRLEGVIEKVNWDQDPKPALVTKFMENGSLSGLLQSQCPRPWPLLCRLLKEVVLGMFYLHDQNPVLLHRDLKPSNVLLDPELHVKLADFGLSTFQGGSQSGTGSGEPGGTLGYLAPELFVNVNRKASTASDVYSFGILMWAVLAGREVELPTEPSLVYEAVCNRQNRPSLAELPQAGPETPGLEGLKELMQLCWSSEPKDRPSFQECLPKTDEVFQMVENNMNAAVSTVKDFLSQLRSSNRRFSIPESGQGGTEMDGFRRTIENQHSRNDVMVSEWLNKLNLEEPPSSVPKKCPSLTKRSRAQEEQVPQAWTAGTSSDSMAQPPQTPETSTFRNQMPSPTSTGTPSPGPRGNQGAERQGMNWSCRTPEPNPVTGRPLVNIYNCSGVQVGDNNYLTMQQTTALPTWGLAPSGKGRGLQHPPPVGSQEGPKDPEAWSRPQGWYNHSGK

| Kd [5] [µM] | Kd [6] [µM] | SMILES | Activity (HT-29 [1]) | EC50 (HT-29 [2]) [µM] | Activity (HT-29 [3]) | CC50 (HT-29 [4]) [µM] | EC50 (HT-29 [1]) [µM] | Activity (Mus musculus) |
| --- | --- | --- | --- | --- | --- | --- | --- | --- |
|  |  | O=C(Cc1cccc(C(F)(F)F)c1)Nc1cc(Oc2cc3sc(NC(=O)C4CCC(NC(=O)C5CCCC5)CC4)nc3cc2F)ccc1F (centres undefined) | inactive | 0.0729 | Active | > 100 |  |  |
| > 10 | 0.015 | COCC(=O)NC1CCC(C(=O)Nc2nc3cc(F)c(Oc4ccc(F)c(NC(=O)Cc5cccc(C(F)(F)F)c5)c4)cc3s2)CC1 (centres undefined) | inactive | 0.0448 | Active | > 100 |  |  |
|  |  | CCCC1CCC(C2CCC(C(=O)Nc3nc4cc(F)c(Oc5ccc(F)c(NC(=O)Cc6cccc(C(F)(F)F)c6)c5)cc4s3)CC2)CC1 (centres undefined) | inactive | > 10 | Active | > 100 |  |  |
|  |  | O=C(Cc1cccc(C(F)(F)F)c1)Nc1cc(Oc2cc3sc(NC(=O)C4CCC(O)CC4)nc3cc2F)ccc1F (centres undefined) | inactive | 0.0956 | Active | > 100 |  |  |
|  |  | CCCC(=O)NC1CCC(C(=O)Nc2nc3cc(F)c(Oc4ccc(F)c(NC(=O)Cc5cccc(C(F)(F)F)c5)c4)cc3s2)CC1 (centres undefined) | inactive | 0.0827 | Active | > 100 |  |  |
| > 10 | 0.069 | O=C(Cc1cccc(C(F)(F)F)c1)Nc1cc(Oc2cc3sc(NC(=O)C4CCC(NC(=O)c5cccs5)CC4)nc3cc2F)ccc1F (centres undefined) | inactive | 0.0529 | Active | > 100 |  |  |
|  |  | CC(C)(C)OC(=O)NC1CCCC(C(=O)Nc2nc3cc(F)c(Oc4ccc(F)c(NC(=O)Cc5cccc(C(F)(F)F)c5)c4)cc3s2)C1 (centres undefined) | inactive | 0.334 | Active | > 100 |  |  |
|  |  | CCCS(=O)(=O)NC1CCC(C(=O)Nc2nc3cc(F)c(Oc4ccc(F)c(NC(=O)Cc5cccc(C(F)(F)F)c5)c4)cc3s2)CC1 (centres undefined) | inactive | 0.119 | Active | > 100 |  |  |
|  |  | O=C1CCC(C(=O)Nc2nc3ccc(Oc4ccc(F)c(NC(=O)Cc5cccc(C(F)(F)F)c5)c4)cc3s2)CC1 |  |  |  | > 50 | 0.05 |  |
|  |  | CC(C)CC(=O)NC1CCC(C(=O)Nc2nc3cc(F)c(Oc4ccc(F)c(NC(=O)Cc5cccc(C(F)(F)F)c5)c4)cc3s2)CC1 (centres undefined) | inactive | 0.0475 | Active | > 100 |  |  |
|  |  | CCC(=O)NC1CCC(C(=O)Nc2nc3cc(F)c(Oc4ccc(F)c(NC(=O)Cc5cccc(C(F)(F)F)c5)c4)cc3s2)CC1 (centres undefined) | inactive | 0.0832 | Active | > 100 |  |  |
|  |  | CCCC1CCC(C(=O)Nc2nc3cc(F)c(Oc4ccc(F)c(NC(=O)Cc5cccc(C(F)(F)F)c5)c4)cc3s2)CC1 (centres undefined) | inactive | > 10 | Active | > 100 |  |  |
|  |  | O=C(Cc1cccc(C(F)(F)F)c1)Nc1cc(Oc2cc3sc(NC(=O)C4CCC(NS(=O)(=O)c5ccccc5)CC4)nc3cc2F)ccc1F (centres undefined) | inactive | 0.235 | Active | > 100 |  |  |
|  |  | O=C(Cc1cccc(C(F)(F)F)c1)Nc1cc(Oc2cc3sc(NC(=O)C4CCC(NC(=O)C5CC5)CC4)nc3cc2F)ccc1F (centres undefined) | inactive | 0.0505 | Active | > 100 |  |  |
| > 10 | 0.043 | O=C(Cc1cccc(C(F)(F)F)c1)Nc1cc(Oc2cc3sc(NC(=O)C4CCC(NC(=O)CCCl)CC4)nc3cc2F)ccc1F (centres undefined) | inactive | 0.05 | Active | > 100 |  |  |
|  |  | C[C@@H]1C[C@H]2[C@@H]3CCC4=CC(=O)C=C[C@]4(C)[C@@]3(F)[C@@H](O)C[C@]2(C)[C@@]1(O)C(=O)CO [DEXAMETHASONE] |  |  |  |  |  | 3.7 |
| > 10 | 0.045 | CCCCC(=O)NC1CCC(C(=O)Nc2nc3cc(F)c(Oc4ccc(F)c(NC(=O)Cc5cccc(C(F)(F)F)c5)c4)cc3s2)CC1 (centres undefined) | inactive | 0.0424 | Active | > 100 |  |  |
|  |  | O=C(Cc1cccc(C(F)(F)F)c1)Nc1cc(Oc2cc3sc(NC(=O)C4CCCC(NC(=O)C5CC5)C4)nc3cc2F)ccc1F (centres undefined) | inactive | 0.0712 | Active | > 100 |  |  |
|  |  | O=C(Cc1cccc(C(F)(F)F)c1)Nc1cc(Oc2cc3sc(NC(=O)C4CCC(NC(=O)OCc5ccccc5)CC4)nc3cc2F)ccc1F (centres undefined) | inactive | 0.945 | Active | > 100 |  |  |
|  |  | N#Cc1c(Oc2ccc(F)c(NC(=O)Cc3cccc(C(F)(F)F)c3)c2)ccc2nc(NC(=O)C3CC3)sc12 |  |  |  | > 50 |  |  |
|  |  | CC(=O)OCC(=O)NC1CCC(C(=O)Nc2nc3cc(F)c(Oc4ccc(F)c(NC(=O)Cc5cccc(C(F)(F)F)c5)c4)cc3s2)CC1 (centres undefined) | inactive | 0.0818 | Active | > 100 |  |  |
| > 10 | 0.015 | CC(C)C(=O)NC1CCC(C(=O)Nc2nc3cc(F)c(Oc4ccc(F)c(NC(=O)Cc5cccc(C(F)(F)F)c5)c4)cc3s2)CC1 (centres undefined) | inactive | 0.0341 | Active | > 100 |  |  |
| > 10 | 0.015 | CCOCC(=O)NC1CCC(C(=O)Nc2nc3cc(F)c(Oc4ccc(F)c(NC(=O)Cc5cccc(C(F)(F)F)c5)c4)cc3s2)CC1 (centres undefined) | inactive | 0.0484 | Active | > 100 |  |  |
|  |  | CC(C)(C)OC(=O)NC1CCC(C(=O)Nc2nc3cc(F)c(Oc4ccc(F)c(NC(=O)Cc5cccc(C(F)(F)F)c5)c4)cc3s2)CC1 (centres undefined) | inactive | 0.136 | Active | > 100 |  |  |
|  |  | O=C(Cc1cccc(C(F)(F)F)c1)Nc1cc(Oc2cc3sc(NC(=O)C4CCC(NC(=O)c5ccc(F)cc5)CC4)nc3cc2F)ccc1F (centres undefined) | inactive | 0.0552 | Active | > 100 |  |  |
